This is an account of results in paper PMC3363326 (ACS medicinal chemistry letters, 2012).

The subject of series [1] is staphyloxanthin pigment formation. The settings on record: read-out: carotenoid pigment formation in cells IC50; cited from earlier work.
The target of series [2] is T1, S. aureus CrtM (Staphylococcus aureus, UniProt A9JQL9). The settings on record: read-out: CrtM IC50; cited from earlier work.
In series [3] the target is T1, S. aureus CrtM. Briefly: S. aureus CrtM. The format is biochemical.
Another series has as its target T2, S. aureus UPPS (Staphylococcus aureus, UniProt P60477).
T2 sequence (P60477 1-256): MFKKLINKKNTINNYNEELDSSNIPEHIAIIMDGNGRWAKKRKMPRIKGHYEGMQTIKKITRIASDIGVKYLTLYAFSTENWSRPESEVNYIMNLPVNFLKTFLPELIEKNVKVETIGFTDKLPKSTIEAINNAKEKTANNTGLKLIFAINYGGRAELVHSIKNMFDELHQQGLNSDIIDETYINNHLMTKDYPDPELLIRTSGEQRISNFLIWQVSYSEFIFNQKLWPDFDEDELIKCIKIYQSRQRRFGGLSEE
In words: S. aureus UPPS inhibition. It is filed as biochemical.

Series [4] concerns USA300 (MRSA) strain of S. aureus. Briefly: S. aureus cell growth inhibition. It is filed as cell-based. The settings on record: Staphylococcus aureus, MRSA|USA300, read-out: MIC90 against S. aureus.
Another series concerns E. coli. In words: E. coli cell growth inhibition. The format is cell-based. The settings on record: DH5α, K12.
For another series, the system named is MCF-7. Briefly: Toxicity against human cell line. The format is cell-based.
A further series relates to FPPS. The settings on record: background statement, no reference given; cited from earlier work.
Another series relates to bacteria. The settings on record: background statement, no reference given; cited from earlier work.

Each structure is given as a SMILES string. ≈ marks a conversion by molar mass, not a printed value.

T1 sequence (A9JQL9 whole entry): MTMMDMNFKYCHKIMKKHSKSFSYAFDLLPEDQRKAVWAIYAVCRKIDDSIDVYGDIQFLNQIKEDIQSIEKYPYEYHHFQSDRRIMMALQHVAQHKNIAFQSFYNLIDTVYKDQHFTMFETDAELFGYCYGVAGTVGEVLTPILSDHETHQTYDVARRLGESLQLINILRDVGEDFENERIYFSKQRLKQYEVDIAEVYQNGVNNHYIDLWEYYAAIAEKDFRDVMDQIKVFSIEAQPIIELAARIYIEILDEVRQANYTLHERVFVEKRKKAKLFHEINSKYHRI

`O=P(O)(O)C(CCCc1cccc(Oc2ccccc2)c1)S(=O)(=O)O` (stereo not shown) [Compound 3]: the half-inhibitory concentration (IC50) – broadly, the concentration at which inhibition is half-maximal – is approximately 110 nM in series [1] and approximately 7900 nM on S. aureus CrtM [2].

With `CCCCCCCCCCOc1cccc(Cn2ccc(O)c(C(=O)O)c2=O)c1` [Compound 42], the “CrtM inhibition, in words” value at S. aureus CrtM [3] is listed as “no activity”.

In the case of `CCCCCCCCCCOc1cccc(C(=O)/C=C(\O)C(=O)O)c1` [Compound 44], affinity at S. aureus UPPS was put at a Ki of 230 nM.

On to `CCCCCCCCOc1ccc(C(=O)/C=C(\O)C(=O)O)cc1` [Compound 45], for which the affinity on S. aureus UPPS corresponds to a Ki of 670 nM. For the same compound, the MIC90 (as a rule, an inhibitory concentration at the 90% level, which refers to growth in some studies and to a panel of isolates in others) in [4] lay within 0.25 to 0.5 µg/mL (≈ 0.78 to 1.56 µM). Also, the “activity against E. coli” value in the series on E. coli is “very little activity”. For the same compound, the “activity against human cell lines” value in the series on MCF-7 is on record as “very little activity”.

Regarding `O=P(O)(O)C(O)(Cn1ccnc1)P(=O)(O)O` [zoledronate], in the series with FPPS, the FPPS inhibition potency entry is listed as “potent, low nM inhibitors”. The antibacterial activity entry with bacteria was “little antibacterial activity”.
